This is an account of results in patent US8293773B2, “1, 2, 3-triazole derivatives as new cannabinoid-1 receptor antagonists” (National Tsing Hua University, priority 2008, dated 2012).

The first test deals with T1, human CB1 receptor (Homo sapiens, UniProt P21554).
T1 construct: expressed in transfected cells; membrane-enriched fractions
T1 sequence (P21554 whole entry): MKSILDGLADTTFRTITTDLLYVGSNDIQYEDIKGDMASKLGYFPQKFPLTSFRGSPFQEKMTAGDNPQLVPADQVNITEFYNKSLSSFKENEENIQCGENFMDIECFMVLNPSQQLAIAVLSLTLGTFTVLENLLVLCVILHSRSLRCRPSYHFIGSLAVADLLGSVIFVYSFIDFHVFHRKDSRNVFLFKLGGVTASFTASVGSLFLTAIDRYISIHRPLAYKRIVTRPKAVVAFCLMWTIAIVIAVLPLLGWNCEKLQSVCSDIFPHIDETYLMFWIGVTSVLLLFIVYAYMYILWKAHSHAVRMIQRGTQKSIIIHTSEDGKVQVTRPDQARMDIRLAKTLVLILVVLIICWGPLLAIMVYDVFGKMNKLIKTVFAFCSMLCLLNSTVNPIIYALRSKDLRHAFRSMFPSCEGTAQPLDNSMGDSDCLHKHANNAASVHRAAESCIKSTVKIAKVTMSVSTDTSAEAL
Nature of the test: competitive radioligand binding assay, displacement of [3H]CP55,940, CB1. As to conditions: Table 1; percent inhibition at 10 μM. The protocol:
In addition, the affinity of test compounds of this invention toward CB1 and CB2 receptors was determined by competitive radioligand binding assays in vitro. This method differentiates the binding strength between compounds by their abilities in displacing a receptor-specific radioactive ligand. […] The readings of the radioactivity retained allow further analysis of receptor binding, and assist in predictions of the pharmacological activities of the test compounds.
In the assays, CB1 receptors are from human CB1 stably expressed cell lines, and CB2 receptors are from human CB2 stably expressed cell lines. For purification of membrane-enriched fractions, cells were scraped off from the culture dishes in ice-cold buffer A (50 mM Tris, 5 mM MgCl2, 2.5 mM EDTA, pH 7.4, 10% sucrose) with 1 mM PMSF. After sonication, the membrane-enriched fractions were centrifuged for 15 minutes at 2,000×g at 4° C. The supernatant was centrifuged again for 30 minutes at 43,000×g at 4° C. The final pellet was re-suspended in buffer A and stored at −80° C. The protein concentration of the purified membrane was determined by the Bradford method as described by the manual provided by Bio-Rad Laboratories, Inc., Hercules, Calif.
During the receptor binding experiments, 0.2˜8 μg of membrane fractions were incubated with 0.75 nM [^3H]CP55,940 and a test compound in the incubation buffer of 50 mM Tris-HCl, 5 mM MgCl2, 1 mM EDTA, 0.3% BSA, pH 7.4. The non-specific binding was determined by using 1 μM of CP55,940. The mixture was incubated for 1.5 hours at 30° C. in Multiscreen microplates (Millipore, Billerica, Mass.). At the completion of the incubation, the reaction was terminated by Manifold filtration and washed with ice-cold wash buffer (50 mM Tris, pH 7.4, 0.25% BSA) four times. The radioactivity bound to the filters was measured by Topcount (Perkin Elmer Inc.).
In general terms: Loss of bound radioactivity is the signal in a displacement assay; it reports binding, not function.
Usually inhibition stands for the drop in the measured response relative to a control, in per cent. Read a low inhibition as a response near the control. As for `CCCCCCOC(=O)Cn1nnc(-c2ccc(Cl)cc2Cl)c1-c1ccc(Cl)cc1` [Compound 56], 10 µM produced 47.7% inhibition.

For `CCCCCCOC(=O)Cn1nnc(-c2ccc(Cl)cc2Cl)c1-c1ccc(Cl)cc1Cl` [Compound 57], the inhibition at 10 µM stood at 55.7%.

As for `CCCCCOC(=O)Cn1nnc(-c2ccc(Cl)cc2Cl)c1-c1ccc(Cl)cc1Cl` [Compound 58], the inhibition at 10 µM stood at 58.3%.

For the molecule `CCCCCCCOC(=O)Cn1nnc(-c2ccc(Cl)cc2Cl)c1-c1ccc(Cl)cc1Cl` [Compound 59], testing at 10 µM gave an inhibition of 30.1%.

In the case of `O=C(Cn1nnc(-c2ccc(Cl)cc2Cl)c1-c1ccc(Cl)cc1Cl)N1CCCCC1` [Compound 60], testing at 10 µM gave an inhibition of 55.7%.

`CCCCOC(=O)Cn1nnc(-c2ccc(C(=O)OC)cc2)c1-c1ccc(C(=O)OC)cc1` [Compound 61]: at 10 µM the inhibition was 46.1%.

As for `CCCCOC(=O)Cn1nnc(-c2cccc(Br)c2)c1-c1cccc(Br)c1` [Compound 62], 10 µM produced 18.3% inhibition.

Turning to `CCCCOC(=O)Cn1nnc(-c2cccc(C)c2)c1-c1cccc(C)c1` [Compound 63], the inhibition at 10 µM was 9.9%.

`O=C(Cn1nnc(-c2ccc(Cl)cc2Cl)c1-c1ccc(Cl)cc1Cl)N1CCOCC1` [Compound 64] returned an inhibition at 10 µM of 26%.

The same test, now with this note: Table 2; percent inhibition at 10 μM.
`O=C(c1ccccc1)n1nc(-c2ccccc2)c(-c2ccccc2)n1` [Compound 65] showed an inhibition at 10 µM of 11.4%.

In the case of `CC(C)(C)C(=O)n1nc(-c2ccccc2)c(-c2ccccc2)n1` [Compound 66], the inhibition at 10 µM stood at 32.1%.

As to `O=C(c1ccccc1Cl)n1nc(-c2ccccc2)c(-c2ccccc2)n1` [Compound 67], the inhibition at 10 µM was found to be 13.1%.

In the case of `CC(C)(C)C(=O)n1nc(-c2ccc(Cl)cc2Cl)c(-c2ccc(Cl)cc2Cl)n1` [Compound 68], the inhibition at 10 µM was determined as 24.2%.

For `COc1ccc(NC(=O)n2nc(-c3ccc(Cl)cc3)c(-c3ccc(Cl)cc3)n2)cc1` [Compound 69], the inhibition at 10 µM was determined as 9.9%.

In turn, `O=C(c1ccccc1)n1nc(-c2ccc(Cl)cc2)c(-c2ccc(Cl)cc2)n1` [Compound 70] came in with an inhibition at 10 µM of 16.2%.

As for `Cc1cc(C)cc(NC(=O)n2nc(-c3ccc(Cl)cc3)c(-c3ccc(Cl)cc3)n2)c1` [Compound 71], the inhibition at 10 µM is 3.6%.

Consider `O=C(NCc1ccccc1)n1nc(-c2ccc(Cl)cc2Cl)c(-c2ccc(Cl)cc2Cl)n1` [Compound 73], for which at 10 µM the inhibition was 23.8%.

On to `CCCCCCNC(=O)n1nc(-c2ccc(Cl)cc2Cl)c(-c2ccc(Cl)cc2Cl)n1` [Compound 75], for which at 10 µM the inhibition was 3.3%.

For the molecule `Cc1cc(C)cc(NC(=O)n2nc(-c3ccc(Cl)cc3Cl)c(-c3ccc(Cl)cc3Cl)n2)c1` [Compound 76], testing at 10 µM gave an inhibition of 12.7%.

In turn, `CCCCCCCCNC(=O)n1nc(-c2ccc(Cl)cc2Cl)c(-c2ccc(Cl)cc2Cl)n1` [Compound 77] yielded an inhibition at 10 µM of 27.5%.

`COc1ccc(NC(=O)n2nc(-c3ccc(Cl)cc3Cl)c(-c3ccc(Cl)cc3Cl)n2)cc1` [Compound 78] displayed an inhibition at 10 µM of 6.4%.

For `O=C(Nc1ccc(Cl)cc1)n1nc(-c2ccc(Cl)cc2)c(-c2ccc(Cl)cc2)n1` [Compound 79], the inhibition at 10 µM came out at 1.5%.

Regarding `O=C(NC1CCCCC1)n1nc(-c2ccc(Cl)cc2)c(-c2ccc(Cl)cc2)n1` [Compound 80], the inhibition at 10 µM came to 29.9%.

As to `CCCCCCNC(=O)n1nc(-c2ccc(Cl)cc2)c(-c2ccc(Cl)cc2)n1` [Compound 81], the inhibition at 10 µM came to 41.5%.

`CCCCCCCCNC(=O)n1nc(-c2ccc(Cl)cc2)c(-c2ccc(Cl)cc2)n1` [Compound 82] registered an inhibition at 10 µM of 26.9%.

On to `CCCCC(=O)n1nc(-c2ccc(Cl)cc2)c(-c2ccc(Cl)cc2)n1` [Compound 83], for which testing at 10 µM gave an inhibition of 11.8%.

`CCCCCCCC(=O)n1nc(-c2ccc(Cl)cc2)c(-c2ccc(Cl)cc2)n1` [Compound 84]: 10 µM produced 21.2% inhibition.

Molecule `CCCCCCCCC(=O)n1nc(-c2ccc(Cl)cc2)c(-c2ccc(Cl)cc2)n1` [Compound 85] returned an inhibition at 10 µM of 18.3%.

`CCCCCNC(=O)n1nc(-c2ccc(Cl)cc2)c(-c2ccc(Cl)cc2)n1` [Compound 86] returned an inhibition at 10 µM of 8.4%.

`CCCCCCCNC(=O)n1nc(-c2ccc(Cl)cc2)c(-c2ccc(Cl)cc2)n1` [Compound 87] yielded an inhibition at 10 µM of 12.9%.

The molecule `CCCCCNC(=O)n1nc(-c2ccc(Cl)cc2Cl)c(-c2ccc(Cl)cc2Cl)n1` [Compound 88] showed an inhibition at 10 µM of 7%.

Molecule `CCCCCCCNC(=O)n1nc(-c2ccc(Cl)cc2Cl)c(-c2ccc(Cl)cc2Cl)n1` [Compound 89] showed an inhibition at 10 µM of 12.9%.

As for `CCCCCNC(=O)n1nc(-c2ccc(Cl)cc2)c(-c2ccc(Cl)cc2Cl)n1` [Compound 90], the inhibition at 10 µM amounted to 14.4%.

`O=C(NCCc1ccccc1)n1nc(-c2ccc(Cl)cc2Cl)c(-c2ccc(Cl)cc2Cl)n1` [Compound 91] displayed an inhibition at 10 µM of 11.2%.

Consider `CCCCOC(=O)CNC(=O)n1nc(-c2ccc(Cl)cc2Cl)c(-c2ccc(Cl)cc2Cl)n1` [Compound 92], for which 10 µM produced 22.3% inhibition.

Regarding `O=C(NC1CCCCC1)n1nc(-c2ccc(Cl)cc2)c(-c2ccc(Cl)cc2Cl)n1` [Compound 93], 10 µM produced 30.5% inhibition.

On to `CCCCCCNC(=O)n1nc(-c2ccc(Cl)cc2)c(-c2ccc(Cl)cc2Cl)n1` [Compound 94], for which the inhibition at 10 µM was found to be 10.9%.

Molecule `CCCCCCCNC(=O)n1nc(-c2ccc(Cl)cc2)c(-c2ccc(Cl)cc2Cl)n1` [Compound 95] had an inhibition at 10 µM of 14.9%.

As to `CCCCCCCCNC(=O)n1nc(-c2ccc(Cl)cc2)c(-c2ccc(Cl)cc2Cl)n1` [Compound 96], 10 µM produced 17.7% inhibition.

Molecule `O=C(NCCc1ccccc1)n1nc(-c2ccc(Cl)cc2)c(-c2ccc(Cl)cc2Cl)n1` [Compound 103] gave an inhibition at 10 µM of 23.4%.

Molecule `CCCCOC(=O)CNC(=O)n1nc(-c2ccc(Cl)cc2)c(-c2ccc(Cl)cc2Cl)n1` [Compound 104] gave an inhibition at 10 µM of 11.8%.

`O=C(NCc1ccccc1)n1nc(-c2ccc(Cl)cc2)c(-c2ccc(Cl)cc2Cl)n1` [Compound 105] showed an inhibition at 10 µM of 18.6%.

In turn, `O=C(NC12CC3CC(CC(C3)C1)C2)n1nc(-c2ccccc2)c(-c2ccccc2)n1` [Compound 106] had an inhibition at 10 µM of 4.8%.

On to `O=C(NC12CC3CC(CC(C3)C1)C2)n1nc(-c2ccc(Cl)cc2)c(-c2ccc(Cl)cc2)n1` [Compound 107], for which testing at 10 µM gave an inhibition of 19.7%.

Consider `O=C(NC12CC3CC(CC(C3)C1)C2)n1nc(-c2ccc(Cl)cc2)c(-c2ccc(Cl)cc2Cl)n1` [Compound 108], for which testing at 10 µM gave an inhibition of 34.5%.

As for `CCCCOC(=O)CNC(=O)n1nc(-c2ccc(Cl)cc2)c(-c2ccc(Cl)cc2)n1` [Compound 109], the inhibition at 10 µM came to 58.1%.

In the case of `CCOC(=O)Cn1nc(-c2ccccc2)c(-c2ccccc2)n1` [Compound 110], the inhibition at 10 µM worked out at 59.1%.

In turn, `CCCCOC(=O)Cn1nc(-c2ccc(Cl)cc2)c(-c2ccc(Cl)cc2)n1` [Compound 112] showed an inhibition at 10 µM of 82.1%.

In turn, `O=C(NC12CC3CC(CC(C3)C1)C2)n1nc(-c2ccc(Cl)cc2Cl)c(-c2ccc(Cl)cc2Cl)n1` [Compound 113] showed an inhibition at 10 µM of 78.9%.

The molecule `CCCCCCOC(=O)Cn1nc(-c2ccc(Cl)cc2)c(-c2ccc(Cl)cc2Cl)n1` [Compound 114] returned an inhibition at 10 µM of 39.1%.

Molecule `CCCCCCOC(=O)Cn1nc(-c2ccc(Cl)cc2Cl)c(-c2ccc(Cl)cc2Cl)n1` [Compound 115] gave an inhibition at 10 µM of 72.7%.

Molecule `CCCCCOC(=O)Cn1nc(-c2ccc(Cl)cc2Cl)c(-c2ccc(Cl)cc2Cl)n1` [Compound 116] yielded an inhibition at 10 µM of 76.5%.

In turn, `CCCCCCCOC(=O)Cn1nc(-c2ccc(Cl)cc2Cl)c(-c2ccc(Cl)cc2Cl)n1` [Compound 117] displayed an inhibition at 10 µM of 47.5%.

Molecule `CCCCOC(=O)Cn1nc(-c2ccc(Cl)cc2)c(-c2ccc(Cl)cc2Cl)n1` [Compound 118] registered an inhibition at 10 µM of 67.4%.

The test is the same for the next values; noted with them: Table 2; percent inhibition at 10 μM; 10 µM.
With `O=C(NC1CCCCC1)n1nc(-c2ccc(Cl)cc2Cl)c(-c2ccc(Cl)cc2Cl)n1` [Compound 74], the “CB1 Inhibition (%) (10 μM)” value was 50.80%.

With `O=C(NC1CCCCC1)n1nc(-c2ccc(Cl)cc2Cl)c(-c2ccc(Cl)cc2Cl)n1` [Compound 97], the “CB1 Inhibition (%) (10 μM)” value is reported as 29.20%.

Turning to `CCCCCCCCNC(=O)n1nc(-c2ccc(Cl)cc2Cl)c(-c2ccc(Cl)cc2Cl)n1` [Compound 98], the “CB1 Inhibition (%) (10 μM)” value stood at 19.40%.

For the molecule `CCCCCCNC(=O)n1nc(-c2ccc(Cl)cc2Cl)c(-c2ccc(Cl)cc2Cl)n1` [Compound 99], the “CB1 Inhibition (%) (10 μM)” value is 6.60%.

`O=C(NC1CCCCC1)n1nc(-c2ccc(Cl)cc2)c(-c2ccc(Cl)cc2)n1` [Compound 100]: the “CB1 Inhibition (%) (10 μM)” value was 19.90%.

For the molecule `CCCCCCCCNC(=O)n1nc(-c2ccc(Cl)cc2)c(-c2ccc(Cl)cc2)n1` [Compound 102], the “CB1 Inhibition (%) (10 μM)” value came out at 15.70%.

Staying with this test, now noted: displacement of specific [3H]-CP55940 binding in HEK 293 cells stably transfected with human CB1 receptor.
As a reminder, the IC50 is the concentration that gives 50% inhibition. A lower IC50 goes with greater potency. `CCCCOC(=O)Cn1nc(-c2ccc(Cl)cc2)c(-c2ccc(Cl)cc2)n1` [Compound 112] registered an IC50 of 2.81 ± 0.301 µM.

The molecule `O=C(NC12CC3CC(CC(C3)C1)C2)n1nc(-c2ccc(Cl)cc2Cl)c(-c2ccc(Cl)cc2Cl)n1` [Compound 113] came in with an IC50 of 4.5 ± 0.871 µM. Compared with the last molecule, the IC50 is about 1.6-fold higher.

Consider `CCCCCCOC(=O)Cn1nc(-c2ccc(Cl)cc2Cl)c(-c2ccc(Cl)cc2Cl)n1` [Compound 115], for which the IC50 was determined as 4.46 ± 0.698 µM.

On to `CCCCCOC(=O)Cn1nc(-c2ccc(Cl)cc2Cl)c(-c2ccc(Cl)cc2Cl)n1` [Compound 116], for which the IC50 stood at 2.8 ± 0.544 µM.
